Assay results taken from paper PMC9046087, “Structural basis of tethered agonism of the adhesion GPCRs ADGRD1 and ADGRF1” (Nature, 2022).
Where a chain is given by its changes, count along the chain named. Ends that are not written are not given here.

How the values were obtained:
ADGRF1 [1] = target: T1, ADGRF1 (Homo sapiens, UniProt Q5T601, K791A); experiment: BRET assay using TRUPATH biosensors, Gs activation of ADGRF1; format: cell-based; conditions: Gs, ADGRF1 K791^6.40bA, n = 3
T1 construct: Flag (N); expressed in transfected cells; host or cells: HEK293F
T1 sequence (Q5T601 20-910 K791A): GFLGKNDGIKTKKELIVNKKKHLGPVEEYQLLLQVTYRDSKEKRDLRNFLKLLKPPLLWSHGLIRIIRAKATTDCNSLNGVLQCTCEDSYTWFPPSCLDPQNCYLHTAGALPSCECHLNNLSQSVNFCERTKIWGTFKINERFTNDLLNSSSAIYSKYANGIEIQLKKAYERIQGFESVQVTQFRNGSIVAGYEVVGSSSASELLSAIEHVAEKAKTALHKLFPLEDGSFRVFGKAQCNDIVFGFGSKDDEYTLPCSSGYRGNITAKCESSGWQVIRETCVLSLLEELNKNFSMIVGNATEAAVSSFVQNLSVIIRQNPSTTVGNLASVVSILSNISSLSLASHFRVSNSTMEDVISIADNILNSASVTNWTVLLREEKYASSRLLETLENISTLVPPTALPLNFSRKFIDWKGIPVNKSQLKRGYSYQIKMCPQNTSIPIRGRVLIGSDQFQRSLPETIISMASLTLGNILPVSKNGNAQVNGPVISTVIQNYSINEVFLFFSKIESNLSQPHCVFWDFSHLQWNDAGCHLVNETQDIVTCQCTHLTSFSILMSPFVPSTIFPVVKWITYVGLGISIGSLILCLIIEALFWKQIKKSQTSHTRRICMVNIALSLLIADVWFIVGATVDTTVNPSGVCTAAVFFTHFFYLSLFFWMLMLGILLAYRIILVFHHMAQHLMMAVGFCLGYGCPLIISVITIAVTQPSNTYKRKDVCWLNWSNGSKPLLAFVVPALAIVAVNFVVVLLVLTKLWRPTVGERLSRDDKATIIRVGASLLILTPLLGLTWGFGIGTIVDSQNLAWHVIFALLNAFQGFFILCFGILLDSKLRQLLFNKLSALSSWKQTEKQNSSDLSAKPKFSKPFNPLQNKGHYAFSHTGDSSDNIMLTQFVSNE
Experimental: (§1) To study the synthetic stalk peptide-induced G protein activation of ADGRD1 and ADGRF1, a BRET assay using TRUPATH biosensors was conducted to measure the proximal interaction between RLuc8 fused to the Gα subunit and GFP2 fused to the Gγ subunit. The TRUPATH suite of biosensors was obtained from Addgene (Addgene kit no. 1000000163) as a gift from B. Roth, including GαsS-RLuc8, Gαi1-RLuc8, Gβ3 and Gγ9-GFP2 as previously described.
(§2) The wild-type or mutant ADGRD1 and ADGRF1 were transiently co-transfected with plasmids encoding Gα-RLuc8 (GαsS-RLuc8 for Gs activation assay; Gαi1-RLuc8 for Gi activation assay), Gβ3 and Gγ9-GFP2 at a ratio of 2:1:1:1 (receptor plasmid, 800 ng; G protein subunit plasmids, 400 ng for each) in 2 ml HEK293F cells at a density of 1.2 × 10^6 cells per ml. Cell cultivation and receptor surface expression measurement were performed as described above. The cells were plated into 96-well white plates (40,000 cells per well) in 60 μl of assay buffer and incubated at 37 °C for 30 min. Then 10 μl of freshly prepared 50 μM coelenterazine 400a (Nanolight Technologies) was added. […] The cells were stimulated with 30 μl of synthetic stalk peptide at different concentrations and the BRET signals were monitored continuously five times. The last measurements were used in data analysis. The BRET ratios were calculated as the ratio of the GFP2 emission to RLuc8 emission.

ADGRF1 [2] = target: T2, ADGRF1 (Homo sapiens, UniProt Q5T601, V689A); experiment: as above; format: cell-based; conditions: Gs, ADGRF1 V689^ICL2A, n = 3
T2 construct: Flag (N); expressed in transfected cells; host or cells: HEK293F
T2 sequence (Q5T601 20-910 V689A): T1 sequence (Q5T601 20-910 K791A) with V670A, A772K
Experimental: as §1, §2

[3] = read-out: pEC50 (mean ± s.e.m.) (converted)

Emax (mean ± s.e.m.) (ADGRF1 [1]): 79 ± 13 % of WT
EC50 (ADGRF1 [1]; [3]): 912 nM
Emax (mean ± s.e.m.) (ADGRF1 [2]): 77 ± 10 % of WT
EC50 (ADGRF1 [2]; [3]): 204 nM
Sequence: TSFSILMSPFVP [pF1]
